Source: patent US5922683A, “Multicyclic erythromycin derivatives” (Abbott Laboratories, priority 1998, dated 1999)

Tests used:
[1] = tested on: STAPHYLOCOCCUS AUREUS A5177; assay: In vitro antibacterial activity (agar dilution MIC); type: cell-based; conditions: BHI agar, 35-37° C., 20 to 24 hours
Method: (§1) Representative compounds of the present invention were assayed in vitro for antibacterial activity as follows: Twelve petri dishes containing successive aqueous dilutions of the test compound mixed with 10 mL of sterilized Brain Heart Infusion (BHI) agar (Difco 0418-01-5) were prepared. Each plate was inoculated with 1:100 (or 1:10 for slow-growing strains, such as Micrococcus and Streptococcus) dilutions of up to 32 different microorganisms, using a Steers replicator block. The inoculated plates were incubated at 35-37° C. for 20 to 24 hours. In addition, a control plate, using BHI agar containing no test compound, was prepared and incubated at the beginning and end of each test.
(§2) An additional plate containing a compound having known susceptibility patterns for the organisms being tested and belonging to the same antibiotic class as the test compound was also prepared and incubated as a further control, as well as to provide test-to-test comparability. Erythromycin A was used for this purpose.
(§3) After incubation, each plate was visually inspected. The minimum inhibitory concentration (MIC) was defined as the lowest concentration of drug yielding no growth, a slight haze, or sparsely isolated colonies on the inoculum spot as compared to the growth control.

[2] = tested on: STREPTOCOCCUS PYOGENES EES61; assay: as above; type: cell-based; conditions: BHI agar, 35-37° C., 20 to 24 hours
Method: as §1, §2, §3

STR[…] 930 = assay: as above; type: cell-based; conditions: BHI agar, 35-37° C., 20 to 24 hours
Method: as §1, §2, §3

ESCHERICHIA COLI JUHL = assay: as above; type: cell-based; conditions: BHI agar, 35-37° C., 20 to 24 hours
Method: as §1, §2, §3

[3] = tested on: STAPHYLOCOCCUS AUREUS A-5278; assay: as above; type: cell-based; conditions: BHI agar, 35-37° C., 20 to 24 hours
Method: as §1, §2, §3

ESCHERICHA COLI SS = assay: as above; type: cell-based; conditions: BHI agar, 35-37° C., 20 to 24 hours
Method: as §1, §2, §3

STR[…] PIU 2548 = assay: as above; type: cell-based; conditions: BHI agar, 35-37° C., 20 to 24 hours
Method: as §1, §2, §3

[4] = tested on: STREPTOCOCCUS BOVIS A-5169; assay: as above; type: cell-based; conditions: BHI agar, 35-37° C., 20 to 24 hours
Method: as §1, §2, §3

ESCHERICHIA COLI DC-2 = assay: as above; type: cell-based; conditions: BHI agar, 35-37° C., 20 to 24 hours
Method: as §1, §2, §3

[5] = tested on: STAPHYLOCOCCUS AUREUS 1775; assay: as above; type: cell-based; conditions: BHI agar, 35-37° C., 20 to 24 hours
Method: as §1, §2, §3

[6] = tested on: STAPHYLOCOCCUS AUREUS ATCC 6538P; assay: as above; type: cell-based; conditions: BHI agar, 35-37° C., 20 to 24 hours
Method: as §1, §2, §3

CANDIDA ALBICANS CCH 442 = assay: In vitro antimicrobial activity (agar dilution MIC); type: cell-based; conditions: BHI agar, 35-37° C., 20 to 24 hours
Method: as §1, §2, §3

Gram-negative bacteria = conditions: cited from earlier work
[7] = tested on: MYCOBACTERIUM SMEGMATIS ATCC 114; assay: In vitro antibacterial activity (agar dilution MIC); type: cell-based; conditions: BHI agar, 35-37° C., 20 to 24 hours
Method: as §1, §2, §3

[8] = tested on: STAPHYLOCOCCUS AUREUS NCTC10649M; assay: as above; type: cell-based; conditions: BHI agar, 35-37° C., 20 to 24 hours
Method: as §1, §2, §3

[9] = tested on: STAPHYLOCOCCUS EPIDERMIDIS 3519; assay: as above; type: cell-based; conditions: BHI agar, 35-37° C., 20 to 24 hours
Method: as §1, §2, §3

N. ASTEROIDES ATCC 9970 = assay: as above; type: cell-based; conditions: BHI agar, 35-37° C., 20 to 24 hours
Method: as §1, §2, §3

[10] = tested on: STAPHYLOCOCCUS AUREUS CMX 642A; assay: as above; type: cell-based; conditions: BHI agar, 35-37° C., 20 to 24 hours
Method: as §1, §2, §3

[11] = tested on: STAPHYLOCOCCUS AUREUS CMX 553; assay: as above; type: cell-based; conditions: BHI agar, 35-37° C., 20 to 24 hours
Method: as §1, §2, §3

| SMILES | minimum inhibitory concentration (MIC) [1] | minimum inhibitory concentration (MIC) [2] | minimum inhibitory concentration (MIC) (STR[…] 930) | minimum inhibitory concentration (MIC) (ESCHERICHIA COLI JUHL) | minimum inhibitory concentration (MIC) [3] | minimum inhibitory concentration (MIC) (ESCHERICHA COLI SS) | minimum inhibitory concentration (MIC) (STR[…] PIU 2548) | minimum inhibitory concentration (MIC) [4] | minimum inhibitory concentration (MIC) (ESCHERICHIA COLI DC-2) | minimum inhibitory concentration (MIC) [5] | minimum inhibitory concentration (MIC) [6] | minimum inhibitory concentration (MIC) (CANDIDA ALBICANS CCH 442) | activity against Gram-negative bacteria (Gram-negative bacteria) | minimum inhibitory concentration (MIC) [7] | minimum inhibitory concentration (MIC) [8] | minimum inhibitory concentration (MIC) [9] | minimum inhibitory concentration (MIC) (N. ASTEROIDES ATCC 9970) | minimum inhibitory concentration (MIC) [10] | minimum inhibitory concentration (MIC) [11] |
| --- | --- | --- | --- | --- | --- | --- | --- | --- | --- | --- | --- | --- | --- | --- | --- | --- | --- | --- | --- |
| CC[C@H]1OC(=O)[C@H](C)C(=O)[C@H](C)[C@@H](O[C@@H]2O[C@H](C)C[C@H](N(C)C)[C@H]2O)[C@](C)(OC)C[C@@H](C)C2Nc3ccccc3N3C(=O)O[C@@]1(C)[C@H]3[C@H]2C (single isomer, unassigned) [Ex 3] | 25 | 3.1 | > 100 | > 100 | > 100 | 100 | 25 | 1.56 | > 100 | > 100 | 25 | > 100 |  |  |  |  |  |  |  |
| CC[C@H]1OC(=O)[C@H](C)[C@@H](O[C@H]2C[C@@](C)(OC)[C@@H](O)[C@H](C)O2)[C@H](C)[C@@H](O[C@@H]2O[C@H](C)C[C@H](N(C)C)[C@H]2O)[C@](C)(O)C[C@@H](C)C(=O)[C@H](C)[C@@H](O)[C@]1(C)O [Ery A, Erythromycin A] |  |  |  |  |  |  |  |  |  |  |  |  | only weak activity |  |  |  |  |  |  |
| CC[C@H]1OC(=O)[C@H](C)C(=O)[C@H](C)[C@@H](O[C@@H]2O[C@H](C)C[C@H](N(C)C)[C@H]2O)[C@](C)(OC)C[C@@H](C)C2=Nc3ccccc3N3C(=O)O[C@@]1(C)[C@H]3[C@H]2C [Ex 2] | 0.39 | 0.1 | > 100 | > 100 | > 100 | 1.56 | 0.39 | 0.1 | > 100 | > 100 | 0.39 | > 100 |  | 3.1 | 0.39 | 0.39 | 0.39 | 0.39 | 0.39 |
| CC[C@H]1OC(=O)[C@H](C)C(=O)[C@H](C)[C@@H](O[C@@H]2O[C@H](C)C[C@H](N(C)C)[C@H]2O)[C@](C)(OC)C[C@@H](C)C2=Nc3cc(C)ccc3N3C(=O)O[C@@]1(C)[C@H]3[C@H]2C [Ex 4] | 0.78 |  | > 100 | > 100 | > 100 | 0.2 | 0.2 |  | > 100 |  | 0.78 | > 100 |  | 100 | 0.78 |  | 0.1 | 0.78 |  |
| CC[C@H]1OC(=O)[C@H](C)C(=O)[C@H](C)[C@@H](O[C@@H]2O[C@H](C)C[C@H](N(C)C)[C@H]2O)[C@](C)(OC)C[C@@H](C)C2=Nc3cc(OC)ccc3N3C(=O)O[C@@]1(C)[C@H]3[C@H]2C [Ex 5] | 0.78 | 0.02 | > 100 | > 100 | > 100 | 50 | 0.39 | 0.02 | > 100 | > 100 | 0.78 | > 100 |  | 1.56 | 0.78 | 0.78 | 0.2 | 0.78 | 0.78 |
| CC[C@H]1OC(=O)[C@H](C)C(=O)[C@H](C)[C@@H](O[C@@H]2O[C@H](C)C[C@H](N(C)C)[C@H]2O)[C@](C)(OC)C[C@@H](C)C2=Nc3cc(C#N)ccc3N3C(=O)O[C@@]1(C)[C@H]3[C@H]2C [Ex 6] |  |  | > 100 | > 100 | > 100 | 3.1 | 0.39 |  | > 100 | > 100 | 0.39 | > 100 |  | 0.1 | 0.39 | 0.2 | 0.39 | 0.39 | 0.39 |
| CC[C@H]1OC(=O)[C@H](C)C(=O)[C@H](C)[C@@H](O[C@@H]2O[C@H](C)C[C@H](N(C)C)[C@H]2O)[C@](C)(OC)C[C@@H](C)C2=Nc3cccnc3N3C(=O)O[C@@]1(C)[C@H]3[C@H]2C [Ex 7] | 0.39 | 0.05 | > 100 | > 100 | > 100 | 0.78 | 0.39 | 0.05 | > 100 | > 100 | 0.39 | > 100 |  | 3.1 | 0.39 | 0.39 | 0.1 | 0.39 | 0.39 |
| C=CCO[C@]1(C)C[C@@H](C)C2=Nc3ccccc3N3C(=O)O[C@](C)([C@@H](CC)OC(=O)[C@H](C)C(=O)[C@H](C)[C@H]1O[C@@H]1O[C@H](C)C[C@H](N(C)C)[C@H]1O)[C@H]3[C@H]2C [Ex 8] | 0.78 | 0.39 | > 100 | > 100 | > 100 | 12.5 | 0.78 | 0.1 | > 100 | > 100 | 0.78 | > 100 |  |  | 0.78 |  | 3.1 | 0.78 | 0.78 |
